{
  "source": "paper PMC3411462",
  "about": "“Long-acting κ opioid antagonists nor-BNI, GNTI and JDTic: pharmacokinetics in mice and lipophilicity” (BMC Pharmacology, 2012)",
  "key": {"[1]": {"experiment": "Brain and plasma concentrations in mice after intraperitoneal administration (LC-MS-MS), non-compartmental analysis", "assay_type": "in vivo", "conditions": "for half-life: read-out: t1/2 (converted); for concentration at 0.5 h / concentration at 1 h / concentration at 2 h / concentration at 4 h / concentration at 24 h / AUC(0-inf) / CL/F / Vd/F: 10 mg/kg", "experimental": "Doses are reported by weight of the specified salt. […] Body mass was measured to ±0.1 g.\nMice were sacrificed by cervical dislocation, then decapitated for collection of brain and blood samples. Trunk blood was collected in 1.5 mL polypropylene micro-centrifuge tubes, shaken with a few crystals of EDTA and cooled in ice-water. Samples were centrifuged at 14,000 rpm (revolutions per minute) for 15 minutes at 3 °C, then stored in glass sample vials at −20 °C until analysis. Brains were removed and immersed for 30 seconds in 2-methylbutane over dry ice, then stored in polypropylene tubes at −20 °C until sample preparation. Sample tubes were thawed in ice-water, distilled water was added (2:1 by weight) and the brain homogenized with a probe sonicator for 3 minutes over ice-water (Fisher Sonic Dismembrator 300 at 35% power). The probe was rinsed with ethanol and distilled water between samples. Brain homogenate was stored in glass sample vials at −20 °C until analysis by LC-MS-MS.\nDrug concentrations (ng mL^-1) refer to the free base, and were measured by liquid chromatography-tandem mass spectrometry (LC-MS-MS) as described previously. Briefly, samples were shaken with 3 volumes of methanol and centrifuged at 3000 g. Aliquots of the supernatants were diluted with 5 volumes of water containing an appropriate internal standard. Extracts from in vitro and in vivo experiments were analyzed by multiple reaction monitoring on an API3000 or API4000 LC-MS-MS system with electrospray ion source, controlled and analyzed using the Analyst software package (Applied Biosystems, Foster City, CA). Chromatography was conducted on a Sprite Armor C18 analytical column (20 × 2.1 mm, 10 μm particle size, Analytical Sales and Products, Pompton Plains, NJ) with a 0.5 μm PEEK guard filter. Compounds were eluted with a gradient from 2% to 95% acetonitrile in water, both containing 0.1% formic acid. Compounds were detected in positive ion mode, tuned to the mass transition with the largest intensity. Analyte concentrations were determined by comparison of analyte:internal standard peak area ratios to those of standards prepared in the appropriate matrices.\nFor calculation of mean concentrations, the earliest values below the MRC were substituted by MRC ÷ 2, as recommended elswhere. Pharmacokinetic parameters were calculated from mean concentrations using PKSolver, employing non-compartmental analysis for extravascular administration. Curves in figures were fitted using Origin 8.5 (OriginLab, Northampton, MA) using 2-compartment models. Confidence intervals and two-tailed p values (unpaired t test) were calculated using Graphpad Quickcalcs. One outlier was identified using Grubbs' test (p < 0.01) and excluded from the analysis; see Additional file 1."}, "P-gp (human MDR1)": {"molecular_target": "T1, P-gp (human MDR1) (Homo sapiens, UniProt P08183)", "T1 construct": "expressed in transfected cells; host or cells: LLC-PK1 (pig kidney epithelial cells) transfected with human MDR1 at Amgen", "T1 sequence (P08183 whole entry)": "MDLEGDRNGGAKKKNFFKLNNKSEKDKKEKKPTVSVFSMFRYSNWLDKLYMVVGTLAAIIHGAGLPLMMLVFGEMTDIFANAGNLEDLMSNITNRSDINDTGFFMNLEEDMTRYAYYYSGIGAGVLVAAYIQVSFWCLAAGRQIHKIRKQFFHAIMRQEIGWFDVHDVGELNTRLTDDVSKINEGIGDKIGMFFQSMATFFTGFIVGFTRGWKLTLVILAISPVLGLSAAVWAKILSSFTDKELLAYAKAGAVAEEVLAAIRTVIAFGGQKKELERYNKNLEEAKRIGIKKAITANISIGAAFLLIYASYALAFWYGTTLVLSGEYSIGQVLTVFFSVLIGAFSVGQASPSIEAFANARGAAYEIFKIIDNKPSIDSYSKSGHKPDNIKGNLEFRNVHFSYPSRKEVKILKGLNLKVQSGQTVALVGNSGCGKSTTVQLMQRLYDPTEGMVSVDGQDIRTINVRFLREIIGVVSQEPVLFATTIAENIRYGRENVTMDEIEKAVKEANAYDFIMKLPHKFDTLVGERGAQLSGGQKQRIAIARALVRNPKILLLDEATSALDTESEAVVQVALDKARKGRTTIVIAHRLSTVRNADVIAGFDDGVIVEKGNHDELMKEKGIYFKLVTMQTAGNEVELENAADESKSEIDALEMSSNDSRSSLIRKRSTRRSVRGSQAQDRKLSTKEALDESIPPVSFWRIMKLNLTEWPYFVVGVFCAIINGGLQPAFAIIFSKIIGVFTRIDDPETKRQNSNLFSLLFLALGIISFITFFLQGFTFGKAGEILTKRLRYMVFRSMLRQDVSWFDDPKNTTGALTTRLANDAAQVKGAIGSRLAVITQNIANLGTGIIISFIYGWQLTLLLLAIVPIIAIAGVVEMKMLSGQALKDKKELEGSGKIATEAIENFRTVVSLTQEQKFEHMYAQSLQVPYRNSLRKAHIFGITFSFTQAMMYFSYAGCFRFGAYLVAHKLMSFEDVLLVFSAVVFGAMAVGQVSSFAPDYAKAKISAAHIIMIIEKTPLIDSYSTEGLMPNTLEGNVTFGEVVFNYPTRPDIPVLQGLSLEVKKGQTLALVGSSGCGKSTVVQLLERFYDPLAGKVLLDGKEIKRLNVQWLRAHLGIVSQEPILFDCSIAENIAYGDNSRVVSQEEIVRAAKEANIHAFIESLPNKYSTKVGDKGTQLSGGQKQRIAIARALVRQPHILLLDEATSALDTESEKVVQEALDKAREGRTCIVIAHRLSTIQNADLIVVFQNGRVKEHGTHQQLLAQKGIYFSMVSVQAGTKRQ", "experiment": "LLC-PK1-MDR1 cell permeation and efflux", "assay_type": "in vitro ADME", "conditions": "pig (LLC-PK1 cells) transfected with human MDR1, LLC-PK1, 5 μM, 0.1% BSA, 120 min, n = 2", "experimental": "(§1) Pig kidney epithelial cells (LLC-PK1) were obtained from American Type Culture Collection (Manassas, VA). Transfection with human MDR1 gene was conducted at Amgen (Thousand Oaks, CA). Bi-directional permeation assays were performed as described previously. […] Cells were seeded onto Transwell filter membranes (0.4 μm pore size, surface area = 0.7 cm2) at a density of 200,000 cells/well. Compound incubations (in duplicate) were performed 5 days post-seeding. To determine efflux, compounds were tested at 5 μM in the presence of 0.1% BSA. […] Samples were analyzed by LC-MS-MS."}, "human P-gp": {"molecular_target": "T2, human P-gp (Homo sapiens, UniProt P08183)", "T2 construct": "expressed in transfected cells; host or cells: LLC-PK1 (pig kidney epithelial cells) transfected with human MDR1 at Amgen", "T2 sequence (P08183 whole entry)": "as above", "experiment": "LLC-PK1-MDR1 cell permeation and efflux", "assay_type": "in vitro ADME", "conditions": "cells expressing human P-gp", "experimental": "as §1"}, "mice": {"tested_on": "mice", "experiment": "Fatalities and behavioral effects after i.p. administration", "conditions": "100 mg kg^-1", "procedure": "Experiments were performed between 10 am and 6 pm. Mice were not used in other experiments, or exposed to other drugs, before testing began.\nDoses are reported by weight of the specified salt. Intraperitoneal injections were administered in distilled water vehicle (10 mL kg^-1). Body mass was measured to ±0.1 g. Some values were inadvertently measured on a low-precision balance (± 2.5 g); these timepoints were replicated at ±0.1 g."}, "[2]": {"conditions": "male, Swiss-Webster, mouse, ip, plasma NCA, 10 mg/kg i.p."}, "[3]": {"conditions": "male, Swiss-Webster, mouse, plasma, intraperitoneal, read-out: Conc (plasma, NCA input)"}, "[4]": {"conditions": "male, Swiss-Webster, mouse, plasma, ip, 10 mg/kg i.p., read-out: mean (plasma)"}, "[5]": {"conditions": "male, Swiss-Webster, mouse, plasma, ip, 10 mg/kg i.p., individual mice, read-out: [drug],plasma (free base equivalent)"}, "[6]": {"conditions": "within 1 hour, 10 mg kg^-1 i.p."}, "[7]": {"conditions": "within 4 hours, 10 mg kg^-1 i.p."}},
  "note": "“Also recorded” adds a separate entry of the source. Where two headings read alike, the source gives them in different places.",
  "data": [
    {"smiles": "Oc1ccc2c3c1O[C@H]1c4[nH]c5c(c4C[C@@]4(O)[C@@H](C2)N(CC2CC2)CC[C@]314)C[C@@]1(O)[C@H]2Cc3ccc(O)c4c3[C@@]1(CCN2CC1CC1)[C@H]5O4", "note": "[nor-BNI, norbinaltorphimine]", "values": [
      {"measurement": "half-life", "setting": "[1]; male, Swiss-Webster, mouse, ip, brain NCA, 10 mg/kg i.p.", "result": 0.668, "unit": "h"},
      {"measurement": "AUC(0-t)", "setting": "[1]; [2]", "result": 5910, "unit": "ng·h/mL"},
      {"measurement": "Tmax", "setting": "[1]; [2]", "result": 0.5, "unit": "h"},
      {"measurement": "k el", "setting": "[1]; male, Swiss-Webster, mouse, ip, plasma NCA, 10 mg/kg i.p., read-out: Lambda_z (converted)", "result": "2.28e-05", "unit": "s⁻¹"},
      {"measurement": "MRT inf", "setting": "[1]; male, Swiss-Webster, mouse, ip, plasma NCA, 10 mg/kg i.p., read-out: MRT 0-inf_obs", "result": 6, "unit": "h"},
      {"measurement": "half-life", "setting": "[1]; [2]", "result": 8.46, "unit": "h"},
      {"measurement": "Cmax", "setting": "[1]; male, Swiss-Webster, mouse, ip, plasma, 10 mg kg^-1 i.p., mice, read-out: C max,p", "result": 4020, "unit": "ng/mL"},
      {"measurement": "concentration at 0.5 h", "setting": "[1]; [3]", "result": 4020, "unit": "ng/mL"},
      {"measurement": "concentration at 1 h", "setting": "[1]; [3]", "result": 1790, "unit": "ng/mL"},
      {"measurement": "concentration at 2 h", "setting": "[1]; [3]", "result": 339, "unit": "ng/mL"},
      {"measurement": "concentration at 4 h", "setting": "[1]; [3]", "result": 148, "unit": "ng/mL"},
      {"measurement": "concentration at 24 h", "setting": "[1]; [3]", "result": 42, "unit": "ng/mL"},
      {"measurement": "concentration at 0.5 h", "setting": "[1]; [4]", "result": 4020, "unit": "ng/mL"},
      {"measurement": "concentration at 1 h", "setting": "[1]; [4]", "result": 1790, "unit": "ng/mL"},
      {"measurement": "concentration at 2 h", "setting": "[1]; [5]", "result": 366, "unit": "ng/mL"},
      {"measurement": "concentration at 2 h", "setting": "[1]; [4]", "result": 339, "unit": "ng/mL"},
      {"measurement": "concentration at 4 h", "setting": "[1]; [5]", "result": 116, "unit": "ng/mL"},
      {"measurement": "concentration at 4 h", "setting": "[1]; [4]", "result": 148, "unit": "ng/mL"},
      {"measurement": "concentration at 24 h", "setting": "[1]; male, Swiss-Webster, mouse, plasma, ip, 10 mg/kg i.p., <MRC substituted by MRC/2, read-out: mean (plasma)", "result": 42, "unit": "ng/mL"},
      {"measurement": "AUC(0-inf)", "setting": "[1]; male, Swiss-Webster, mouse, plasma, ip, plasma NCA, 10 mg/kg i.p., read-out: AUC 0-inf_obs", "result": 6420, "unit": "ng·h/mL"},
      {"measurement": "CL/F", "setting": "[1]; male, Swiss-Webster, mouse, plasma, ip, plasma NCA, 10 mg/kg i.p., read-out: Cl/F_obs (converted)", "result": 26, "unit": "mL/min/kg"},
      {"measurement": "Vd/F", "setting": "[1]; male, Swiss-Webster, mouse, plasma, ip, plasma NCA, 10 mg/kg i.p., read-out: Vz/F_obs", "result": 19, "unit": "L/kg"},
      {"measurement": "AUC(0-inf)", "setting": "[1]; male, Swiss-Webster, mouse, plasma, ip, plasma, 10 mg kg^-1 i.p., non-compartmental analysis, read-out: AUC 0–∞,p", "result": 6420, "unit": "ng·h/mL"},
      {"measurement": "CL/F", "setting": "[1]; male, Swiss-Webster, mouse, plasma, ip, plasma, 10 mg kg^-1 i.p., non-compartmental analysis, read-out: CL/F (converted)", "result": 28.3, "unit": "mL/min/kg"},
      {"measurement": "Vd/F", "setting": "[1]; male, Swiss-Webster, mouse, plasma, ip, plasma, 10 mg kg^-1 i.p., non-compartmental analysis, read-out: V z /F", "result": 19, "unit": "L/kg"},
      {"measurement": "AUMC 0-inf_obs", "setting": "[1]; plasma NCA, 10 mg/kg i.p.", "result": 38503.5, "unit": "ng/ml*h^2"},
      {"measurement": "Tlag", "setting": "[1]; plasma NCA, 10 mg/kg i.p.", "result": 0, "unit": "h"},
      {"measurement": "C max,brain,u", "setting": "[1]; unbound brain, 10 mg kg^-1 i.p., in vivo brain binding assumed at least 3-fold greater than homogenate", "result": "< 26", "unit": "nM"},
      {"measurement": "Decline of mean brain level from peak", "setting": "[1]; [6]", "result": 31, "unit": "%"},
      {"measurement": "Decline of mean plasma concentration from peak", "setting": "[1]; [6]", "result": 56, "unit": "%"},
      {"measurement": "Decline of mean plasma concentration from peak", "setting": "[1]; within 2 hours, 10 mg kg^-1 i.p.", "result": 92, "unit": "%"},
      {"measurement": "Decline of brain levels", "setting": "[1]; [7]", "result": "at least 75%"},
      {"measurement": "Decline of mean plasma concentration from peak", "setting": "[1]; [7]", "result": "at least 80%"},
      {"measurement": "Papp A→B at 120 min, 5 μM", "setting": "P-gp (human MDR1); apical to basolateral", "result": 0.2, "unit": "×10⁻⁶ cm/s"},
      {"measurement": "Papp B→A at 120 min, 5 μM", "setting": "P-gp (human MDR1); basolateral to apical", "result": 0.3, "unit": "×10⁻⁶ cm/s"},
      {"measurement": "Active transport / P-gp-mediated efflux", "setting": "human P-gp", "result": "did not; also recorded: No active transport"},
      {"measurement": "Behavioral effects observed", "setting": "mice", "result": "Only mild behavioral effects, such as hiccup-like spasms and shivering"},
      {"measurement": "Fatalities", "setting": "mice", "result": "no fatalities"}
    ]}
  ]
}
